Data on 13 compounds can be found in patent US12365687B2 (Hoffmann-La Roche Inc., priority 2021, dated 2025).

For assay [1], the target named is human GABAA α5β2γ1 receptor (Homo sapiens (Human), UniProt P31644+Q8N1C3). The experiment in a line: Radioligand binding assay for γ1-containing GABAA subtypes, [3H]RO7239181 competition (α5β2γ1).
For assay [2], the target named is human GABAA α2β2γ1 receptor (Homo sapiens (Human), UniProt P47869+Q8N1C3). Briefly: Radioligand binding assay for γ1-containing GABAA subtypes, [3H]RO7239181 competition (α2β2γ1).
The target in assay [3] is human GABAA α1β3γ2 receptor (Homo sapiens (Human), UniProt P14867+P18507). Briefly: Radioligand binding assay for γ2-containing GABAA subtypes, [3H]Flumazenil competition (α1β3γ2). The note with it: for γ2/γ1 Selectivity Ratio: Ki α1β3γ2 (nM)/Ki α2β2γ1 (nM); for LogSel: Log[Ki α1β3γ2 (nM)/Ki α2β2γ1 (nM)].
Assay [4] concerns the target α2β2γ1 GABAA receptor subtype (Homo sapiens (Human), UniProt P47869+Q8N1C3). Briefly: Two-electrode voltage clamp electrophysiology in Xenopus oocytes expressing GABAA receptors (modulation of GABA EC20 current). It counts as cell-based. To be noted: for Efficacy (GABA)%: % modulation of GABA EC20 = 100*(Fold increase-1), α2β2γ1 oocytes, compound at approx. 30-fold Ki; for Fold increase h-GABA-A α2β2γ1 oocyte @ 30-fold Ki: Xenopus oocytes expressing α2β2γ1, compound at approx. 30-fold its Ki α2β2γ1, GABA EC20 current. An outline of the steps: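 Each concentration was tested on ≥3 oocytes held at −80 mV at room temperature, recorded 3-5 days post-injection. A control and a test response to EC20 GABA (1.5 min each) were superimposed and their point-by-point ratio taken. Peak ratio reported as % modulation of GABA EC20 = 100×(fold increase−1).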

Where [5] appears, read: Ki h-GABAA α2β2γ1, [3H]RO7239181 competition binding, human GABAA α2β2γ1.
[6] abbreviates: Ki h-GABAA α2β2γ1, displacement of [3H]RO7239181, membranes of HEK293F cells expressing human receptors, means of two determinations.

The structures appear in SMILES notation.

One may read the Ki as the equilibrium dissociation constant of an inhibitor or competing ligand from its target. A lower Ki goes with a stronger hold on the target.

Compound `[2H]C([2H])([2H])OC1CN(C(=O)c2nc3n(n2)-c2ccc(C(F)(F)F)c(Cl)c2C(c2ncccc2F)=N[C@H]3C)C1` [Example 104, [(4S)-7-chloro-6-(3-fluor-2-pyridyl)-4-methyl-8-(trifluoromethyl)-4H-[1,2,4]triazolo[1,5-a][1,4]benzodiazepin-2-yl]-[3-(trideuteriomethoxy)azetidin-1-yl]methanone] yielded a Ki in assay [1] of 6.36 nM. In addition, the Ki in assay [2] (setting [5]) was determined as 37.3 nM. In assay [2] (setting [6]), this compound returned a Ki of 37.3 nM. Besides, in assay [3], affinity was put at a Ki of 6300 nM, the “γ2/γ1 Selectivity Ratio” value came to 168.8 and the LogSel is reported as 2.23. Besides, in assay [4], the “Efficacy (GABA)%” value turned out to be 117% and the “Fold increase h-GABA-A α2β2γ1 oocyte @ 30-fold Ki” value is reported as 2.17.

`C[C@@H]1N=C(c2c(F)cccc2F)c2c(ccc(C(F)(F)F)c2Cl)-n2nc(C(=O)NC[C@@H](C)O)nc21` [Example 105, (4S)-7-chloro-6-(2,6-difluorophenyl)-N-[(2R)-2-hydroxypropyl]-4-methyl-8-(trifluoromethyl)-4H-[1,2,4]triazolo[1,5-a][1,4]benzodiazepine-2-carboxamide]: the Ki in assay [1] turned out to be 5.05 nM. In assay [2] (setting [5]), this compound registered a Ki of 13.9 nM. In assay [2] (setting [6]), the affinity corresponds to a Ki of 13.9 nM. In assay [3], the Ki is 5130 nM, the “γ2/γ1 Selectivity Ratio” value worked out at 368.4 and the LogSel is reported as 2.57. Also, in assay [4], the “Efficacy (GABA)%” value came to 98% and the “Fold increase h-GABA-A α2β2γ1 oocyte @ 30-fold Ki” value is 1.98.

On to `C[C@@H]1N=C(c2c(F)cccc2F)c2c(ccc(Cl)c2Cl)-n2nc(C(=O)N3CC4(CCCO4)C3)nc21` [Example 108, [(4S)-7,8-dichloro-6-(2,6-difluorophenyl)-4-methyl-4H-[1,2,4]triazolo[1,5-a][1,4]benzodiazepin-2-yl]-(5-oxa-2-azaspiro[3.4]octan-2-yl)methanone], for which the Ki in assay [1] is 2.59 nM. Further, the Ki in assay [2] (setting [5]) turned out to be 3.9 nM. This compound also registered a Ki in assay [2] (setting [6]) of 3.92 nM. Besides, in assay [3], the Ki stood at 688 nM, the “γ2/γ1 Selectivity Ratio” value is 175.8 and the LogSel came out at 2.24. In addition, in assay [4], the “Efficacy (GABA)%” value is reported as 46% and the “Fold increase h-GABA-A α2β2γ1 oocyte @ 30-fold Ki” value is recorded as 1.46.

On to `C[C@@H]1N=C(c2c(F)cccc2F)c2c(ccc(C(F)(F)F)c2Cl)-n2nc(C(=O)NCC#N)nc21` [Example 110, (4S)-7-chlor-N-(cyanomethyl)-6-(2,6-difluorophenyl)-4-methyl-8-(trifluoromethyl)-4H-[1,2,4]triazolo[1,5-a][1,4]benzodiazepine-2-carboxamide], for which affinity in assay [1] was put at a Ki of 2.64 nM. For the same compound, the Ki in assay [2] (setting [5]) was found to be 12.1 nM. The inhibition constant Ki in assay [2] (setting [6]) stood at 12.1 nM. In assay [3], the affinity corresponds to a Ki of 2480 nM, the “γ2/γ1 Selectivity Ratio” value is on record as 205.1 and the LogSel is 2.31. Moreover, in assay [4], the “Efficacy (GABA)%” value was found to be 119% and the “Fold increase h-GABA-A α2β2γ1 oocyte @ 30-fold Ki” value is listed as 2.19.

Take `Cc1cnc2n1-c1ccc(Cl)c(Cl)c1C(c1c(F)cccc1F)=N[C@H]2C` [Example 111, (4S)-7,8-dichloro-6-(2,6-difluorophenyl)-1,4-dimethyl-4H-imidazo[1,2-a][1,4]benzodiazepine]: the Ki in assay [1] turned out to be 1.24 nM; in assay [2] (setting [5]), 5.2 nM; in assay [2] (setting [6]) it was 5.16 nM; in assay [3] it was 235 nM. In addition, in assay [3], the “γ2/γ1 Selectivity Ratio” value worked out at 45.6. Further, the LogSel in assay [3] is 1.66. Also, the “Efficacy (GABA)%” value in assay [4] is listed as 35%. For the same compound, in assay [4], the “Fold increase h-GABA-A α2β2γ1 oocyte @ 30-fold Ki” value is on record as 1.35.

In the case of `C[C@@H]1N=C(c2ncccc2F)c2c(ccc(C(F)(F)F)c2Cl)-n2nc(C(=O)N3CC4(COC4)C3)nc21` [Example 112, [(4S)-7-chloro-6-(3-fluoro-2-pyridyl)-4-methyl-8-(trifluoromethyl)-4H-[1,2,4]triazolo[1,5-a][1,4]benzodiazepin-2-yl]-(2-oxa-6-azaspiro[3.3]heptan-6-yl)methanone], the Ki in assay [1] amounted to 9.85 nM. This compound yielded a Ki in assay [2] (setting [5]) of 62 nM. The Ki in assay [2] (setting [6]) was found to be 62 nM. In assay [3], the Ki was more than 30000 nM, the “γ2/γ1 Selectivity Ratio” value is recorded as 484.1 and the LogSel is listed as 2.68. In assay [4], the “Efficacy (GABA)%” value came to 136% and the “Fold increase h-GABA-A α2β2γ1 oocyte @ 30-fold Ki” value was determined as 2.36.

In the case of `C[C@@H]1N=C(c2ncccc2F)c2c(ccc(C(F)(F)F)c2Cl)-n2nc(C(=O)N3CC4(CCCO4)C3)nc21` [Example 113, [(4S)-7-chloro-6-(3-fluoro-2-pyridyl)-4-methyl-8-(trifluoromethyl)-4H-[1,2,4]triazolo[1,5-a][1,4]benzodiazepin-2-yl]-(5-oxa-2-azaspiro[3,4]octan-2-yl)methanone], the affinity in assay [1], expressed as Ki, was 7.04 nM. For the same compound, the Ki in assay [2] (setting [5]) was 18.9 nM. Further, the Ki in assay [2] (setting [6]) is 18.9 nM. Moreover, in assay [3], the Ki amounted to 11400 nM, the “γ2/γ1 Selectivity Ratio” value stood at 604.3 and the LogSel is reported as 2.78. In assay [4], the “Efficacy (GABA)%” value is reported as 76% and the “Fold increase h-GABA-A α2β2γ1 oocyte @ 30-fold Ki” value is on record as 1.76.

For the compound `Cc1cnc2n1-c1ccc(C(F)(F)F)c(Cl)c1C(c1c(F)cccc1F)=N[C@H]2C` [Example 115, (4S)-7-chloro-6-(2,6-difluorophenyl)-1,4-dimethyl-8-(trifluoromethyl)-4H-imidazo[1,2-a][1,4]benzodiazepine], the Ki in assay [1] was 2.63 nM. This compound displayed a Ki in assay [2] (setting [5]) of 12.3 nM. This compound yielded a Ki in assay [2] (setting [6]) of 12.3 nM. Also, in assay [3], the Ki is 827 nM, the “γ2/γ1 Selectivity Ratio” value is listed as 67.4 and the LogSel came out at 1.83. Further, in assay [4], the “Efficacy (GABA)%” value is on record as 49% and the “Fold increase h-GABA-A α2β2γ1 oocyte @ 30-fold Ki” value came out at 1.49.

Regarding `Cc1cnc2n1-c1ccc(Br)c(Cl)c1C(c1c(F)cccc1F)=N[C@H]2C` [Example 116, (4S)-8-bromo-7-chloro-6-(2,6-difluorophenyl)-1,4-dimethyl-4H-imidazo[1,2-a][1,4]benzodiazepine], in assay [1], the Ki was 2.47 nM. Also, the Ki in assay [2] (setting [5]) stood at 5.7 nM. The same compound returned a Ki in assay [2] (setting [6]) of 5.7 nM. For the same compound, in assay [3], the Ki was 94.5 nM, the “γ2/γ1 Selectivity Ratio” value was found to be 16.4 and the LogSel is given as 1.22. In addition, in assay [4], the “Efficacy (GABA)%” value was 35% and the “Fold increase h-GABA-A α2β2γ1 oocyte @ 30-fold Ki” value came out at 1.35.

With `C[C@@H]1N=C(c2c(F)cccc2F)c2c(ccc(C(F)(F)F)c2Cl)-n2nc(C(=O)NN3CCCC3)nc21` [Example 118, (4S)-7-chloro-6-(2,6-difluorophenyl)-4-methyl-N-pyrrolidin-1-yl-8-(trifluoromethyl)-4H-[1,2,4]triazolo[1,5-a][1,4]benzodiazepine-2-carboxamide], the Ki in assay [1] was determined as 4.18 nM; in assay [2] (setting [5]), 24.4 nM; in assay [2] (setting [6]), 24.4 nM; in assay [3], 4450 nM. Also, the “γ2/γ1 Selectivity Ratio” value in assay [3] is on record as 182.7. Also, the LogSel in assay [3] was found to be 2.26. Also, in assay [4], the “Efficacy (GABA)%” value is reported as 120%. Besides, in assay [4], the “Fold increase h-GABA-A α2β2γ1 oocyte @ 30-fold Ki” value was found to be 2.20.

For the compound `C[C@@H]1N=C(c2ncccc2F)c2c(ccc(C(F)(F)F)c2Cl)-n2nc(C(=O)N3CC4(CCO4)C3)nc21` [Example 119, 1-oxa-6-azaspiro[3.3]heptan-6-yl-[(4S)-7-chloro-6-(3-fluoro-2-pyridyl)-4-methyl-8-(trifluoromethyl)-4H-[1,2,4]triazolo[1,5-a][1,4]benzodiazepin-2-yl]methanone], in assay [1], the affinity corresponds to a Ki of 10.3 nM. The compound also returned a Ki in assay [2] (setting [5]) of 80.9 nM. Affinity in assay [2] (setting [6]) was put at a Ki of 80.9 nM. For the same compound, in assay [3], affinity was put at a Ki of 12600 nM, the “γ2/γ1 Selectivity Ratio” value is reported as 156.1 and the LogSel is listed as 2.19. Besides, in assay [4], the “Efficacy (GABA)%” value stood at 124% and the “Fold increase h-GABA-A α2β2γ1 oocyte @ 30-fold Ki” value is listed as 2.24.

`C[C@@H]1N=C(c2ncccc2F)c2c(ccc(C(F)(F)F)c2Cl)-n2nc(C(=O)N3CC4(CCOC4)C3)nc21` [Example 120, 6-oxa-2-azaspiro[3.4]octan-2-yl-[(4S)-7-chloro-6-(3-fluoro-2-pyridyl)-4-methyl-8-(trifluoromethyl)-4H-[1,2,4]triazolo[1,5-a][1,4]benzodiazepin-2-yl]methanone]: the affinity in assay [1], expressed as Ki, was 8.55 nM. In addition, the inhibition constant (Ki) in assay [2] (setting [5]) was found to be 80.4 nM. Moreover, the affinity in assay [2] (setting [6]), expressed as Ki, was 80.4 nM. Also, in assay [3], the Ki worked out at 5330 nM, the “γ2/γ1 Selectivity Ratio” value worked out at 66.3 and the LogSel stood at 1.82. Also, in assay [4], the “Efficacy (GABA)%” value was found to be 178% and the “Fold increase h-GABA-A α2β2γ1 oocyte @ 30-fold Ki” value stood at 2.78.

Consider `C[C@@H]1N=C(c2c(F)cccc2F)c2c(ccc(C(F)(F)F)c2Cl)-n2nc(C(=O)N3CC(C(F)F)C3)nc21` [Example 122, [(4S)-7-chloro-6-(2,6-difluorophenyl)-4-methyl-8-(trifluoromethyl)-4H-[1,2,4]triazolo[1,5-a][1,4]benzodiazepin-2-yl]-[3-(difluoromethyl)azetidin-1-yl]methanone], for which the inhibition constant (Ki) in assay [1] was 3.82 nM. In addition, in assay [2] (setting [5]), the Ki amounted to 10.6 nM. In addition, the affinity in assay [2] (setting [6]), expressed as Ki, was 10.6 nM. In addition, in assay [3], the Ki turned out to be 3050 nM, the “γ2/γ1 Selectivity Ratio” value was found to be 287.8 and the LogSel stood at 2.46. Moreover, in assay [4], the “Efficacy (GABA)%” value turned out to be 91% and the “Fold increase h-GABA-A α2β2γ1 oocyte @ 30-fold Ki” value worked out at 1.91.
